From ChEMBL document CHEMBL1201862, “PubChem BioAssay data set” (2004)
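Growth conditions: 96-well plates. Treatment: test compound, 48 hours, 5 concentrations. Analysis: linear interpolation between bracketing concentrations; unreached endpoints set to highest concentration. Abbreviation: GI50, concentration required for 50% inhibition of growth.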 Activity calls are given as the source filed them. Rule as the data show it: active = GI50 up to about 1.1 µM and inactive = higher.

How the values were obtained:
Experiment in all cases: growth of human tumour cells (NCI), 48 h
DU-145 = test system: DU-145
SNB-75 = test system: SNB-75
SN12C = test system: SN12C
UO-31 = test system: UO-31
SK-MEL-28 = test system: SK-MEL-28
TK-10 = test system: TK-10
UACC-62 = test system: UACC-62
LOX IMVI = test system: LOX IMVI
HOP-92 = test system: HOP-92
PC-3 = test system: PC-3
MDA-N = test system: MDA-N
SK-MEL-5 = test system: SK-MEL-5
OVCAR-8 = test system: OVCAR-8
OVCAR-3 = test system: OVCAR-3
Hs-578T = test system: Hs-578T
A498 = test system: A498
NCI-H460 = test system: NCI-H460
ACHN = test system: ACHN
SF-268 = test system: SF-268

SMILES	GI50 (DU-145)	GI50 (SNB-75)	GI50 (SN12C)	GI50 (UO-31)	GI50 (SK-MEL-28)	GI50 (TK-10)	GI50 (UACC-62)	GI50 (LOX IMVI)	GI50 (HOP-92)	GI50 (PC-3)	GI50 (MDA-N)	GI50 (SK-MEL-5)	GI50 (OVCAR-8)	GI50 (OVCAR-3)	GI50 (Hs-578T)	GI50 (A498)	GI50 (NCI-H460)	GI50 (ACHN)	GI50 (SF-268)
CC1=NN(c2nc(N)nc(/C(C#N)=C\c3ccc(-c4ccc([N+](=O)[O-])cc4)o3)n2)C(C)(C)C1	> 100 µM (inactive)	14.2 µM (inactive)	> 100 µM (inactive)	> 100 µM (inactive)	> 100 µM (inactive)	> 100 µM (inactive)	> 100 µM (inactive)	> 100 µM (inactive)	> 100 µM (inactive)	> 100 µM (inactive)	> 100 µM (inactive)	> 100 µM (inactive)	> 100 µM (inactive)	> 100 µM (inactive)	62.2 µM (inactive)	> 100 µM (inactive)	> 100 µM (inactive)	> 100 µM (inactive)	65.5 µM (inactive)
Cc1c(C2=C(Br)C(=O)N(C)C2=O)c(=O)n(C)c(=O)n1C	28 µM (inactive)	> 100 µM (inactive)	95.1 µM (inactive)	18.5 µM (inactive)	39.4 µM (inactive)	17.4 µM (inactive)	34.4 µM (inactive)	17.1 µM (inactive)	17.7 µM (inactive)	23.6 µM (inactive)	28.1 µM (inactive)	22 µM (inactive)	29.6 µM (inactive)	37.2 µM (inactive)	> 100 µM (inactive)	29.4 µM (inactive)	45.6 µM (inactive)	26.7 µM (inactive)	43.5 µM (inactive)
COc1cc2ncnc(Nc3cccc(Br)c3)c2cc1OC	0.0741 µM (active)	3.05 µM (inactive)	13.2 µM (inactive)	1.98 µM (inactive)	4.52 µM (inactive)	0.653 µM (active)	3.85 µM (inactive)	3.1 µM (inactive)	3.97 µM (inactive)	3.77 µM (inactive)	7.26 µM (inactive)	2.18 µM (inactive)	3.72 µM (inactive)	5.14 µM (inactive)	4.44 µM (inactive)	3.12 µM (inactive)	5.75 µM (inactive)	0.06 µM (active)	3.81 µM (inactive)
CC#CC(O)(C(=O)OC1CC2CCC(C1)N2C)C1CCCC1 (centres undefined)	> 100 µM (inactive)	> 100 µM (inactive)	> 100 µM (inactive)	> 100 µM (inactive)	> 100 µM (inactive)	> 100 µM (inactive)	> 100 µM (inactive)	> 100 µM (inactive)	> 100 µM (inactive)	> 100 µM (inactive)	> 100 µM (inactive)	> 100 µM (inactive)	> 100 µM (inactive)	> 100 µM (inactive)	> 100 µM (inactive)	> 100 µM (inactive)	> 100 µM (inactive)	> 100 µM (inactive)	> 100 µM (inactive)
BrC(=C(c1ccc(OC2CCCCO2)cc1)c1ccc(OC2CCCCO2)cc1)c1ccccc1 (centres undefined)	> 100 µM (inactive)	> 100 µM (inactive)	> 100 µM (inactive)	> 100 µM (inactive)	> 100 µM (inactive)	28.8 µM (inactive)	> 100 µM (inactive)	> 100 µM (inactive)	> 100 µM (inactive)	> 100 µM (inactive)	> 100 µM (inactive)	–	> 100 µM (inactive)	> 100 µM (inactive)	> 100 µM (inactive)	> 100 µM (inactive)	> 100 µM (inactive)	–	> 100 µM (inactive)
CO[C@H]1O[C@@H]2CO[C@@H](c3ccccc3)O[C@H]2C[C@]12CCC/C=C\CO2	33.5 µM (inactive)	22.5 µM (inactive)	14.8 µM (inactive)	14.3 µM (inactive)	13.4 µM (inactive)	22.6 µM (inactive)	27.4 µM (inactive)	12.6 µM (inactive)	13.5 µM (inactive)	16.2 µM (inactive)	14.1 µM (inactive)	17.5 µM (inactive)	12.1 µM (inactive)	12.7 µM (inactive)	16.4 µM (inactive)	14 µM (inactive)	47.4 µM (inactive)	15.5 µM (inactive)	14.4 µM (inactive)
Cc1ccc(Sc2ccccc2C23OC(C)(C4C(=O)N(c5ccccc5)C(=O)C42)N(C)C3=O)cc1 (centres undefined)	> 100 µM (inactive)	> 100 µM (inactive)	90.2 µM (inactive)	> 100 µM (inactive)	> 100 µM (inactive)	> 100 µM (inactive)	88.5 µM (inactive)	> 100 µM (inactive)	42.8 µM (inactive)	> 100 µM (inactive)	> 100 µM (inactive)	> 100 µM (inactive)	> 100 µM (inactive)	> 100 µM (inactive)	59.4 µM (inactive)	86.9 µM (inactive)	> 100 µM (inactive)	> 100 µM (inactive)	> 100 µM (inactive)
COC(=O)C1(C(=O)OC)Cc2ccc(OC)cc2C2=C1C(=O)c1ccccc1C2=O	16.5 µM (inactive)	17.7 µM (inactive)	4.42 µM (inactive)	3.69 µM (inactive)	17.1 µM (inactive)	18.4 µM (inactive)	1.85 µM (inactive)	2.17 µM (inactive)	2.69 µM (inactive)	1.87 µM (inactive)	1.83 µM (inactive)	7.4 µM (inactive)	2.4 µM (inactive)	0.282 µM (active)	8.93 µM (inactive)	18.3 µM (inactive)	16.1 µM (inactive)	5.74 µM (inactive)	6.67 µM (inactive)
CN(C)CS/C(N)=N\C(O)C(Cl)(Cl)Cl (centres undefined)	> 100 µM (inactive)	> 100 µM (inactive)	> 100 µM (inactive)	> 100 µM (inactive)	> 100 µM (inactive)	> 100 µM (inactive)	> 100 µM (inactive)	> 100 µM (inactive)	> 100 µM (inactive)	> 100 µM (inactive)	> 100 µM (inactive)	> 100 µM (inactive)	> 100 µM (inactive)	> 100 µM (inactive)	> 100 µM (inactive)	> 100 µM (inactive)	> 100 µM (inactive)	> 100 µM (inactive)	> 100 µM (inactive)
COc1cc(C2c3cc4c(c(O)c3C(=O)C3CCC(=O)N32)OCO4)cc(OC)c1OC (centres undefined)	> 100 µM (inactive)	30 µM (inactive)	> 100 µM (inactive)	26.7 µM (inactive)	49.5 µM (inactive)	67.5 µM (inactive)	30.1 µM (inactive)	52.5 µM (inactive)	34.4 µM (inactive)	38.8 µM (inactive)	30.4 µM (inactive)	23.9 µM (inactive)	> 100 µM (inactive)	68.1 µM (inactive)	37.7 µM (inactive)	39.9 µM (inactive)	52.6 µM (inactive)	75 µM (inactive)	57 µM (inactive)
CC(=O)Oc1c2ccsc2c(OC(C)=O)c2ccsc12	0.412 µM (active)	0.286 µM (active)	0.714 µM (active)	1.33 µM (inactive)	0.329 µM (active)	1.97 µM (inactive)	1.59 µM (inactive)	0.184 µM (active)	0.577 µM (active)	0.164 µM (active)	0.12 µM (active)	0.167 µM (active)	0.337 µM (active)	0.417 µM (active)	0.354 µM (active)	1.77 µM (inactive)	1.81 µM (inactive)	0.667 µM (active)	0.906 µM (active)
CC(=O)NC1C(OCc2ccccc2)OC(CO)C(O)C1OC(C)C(=O)NC(C(=O)NC(CCC(=O)NCCCNc1ccc([N+](=O)[O-])c2[nH]c3ccccc3c(=O)c12)C(N)=O)C(C)C (centres undefined)	> 100 µM (inactive)	> 100 µM (inactive)	> 100 µM (inactive)	> 100 µM (inactive)	> 100 µM (inactive)	> 100 µM (inactive)	> 100 µM (inactive)	> 100 µM (inactive)	> 100 µM (inactive)	> 100 µM (inactive)	> 100 µM (inactive)	> 100 µM (inactive)	> 100 µM (inactive)	> 100 µM (inactive)	> 100 µM (inactive)	> 100 µM (inactive)	> 100 µM (inactive)	> 100 µM (inactive)	> 100 µM (inactive)
O=C(NCCc1ccc(F)cc1)c1cc(/C=C/c2cc(O)ccc2O)ccc1O	10.3 µM (inactive)	4.57 µM (inactive)	5.51 µM (inactive)	1.66 µM (inactive)	3.21 µM (inactive)	2.61 µM (inactive)	2.12 µM (inactive)	3.38 µM (inactive)	1.85 µM (inactive)	2.96 µM (inactive)	3.05 µM (inactive)	2.4 µM (inactive)	3.29 µM (inactive)	2.56 µM (inactive)	4.26 µM (inactive)	4.06 µM (inactive)	9.75 µM (inactive)	2.01 µM (inactive)	3.47 µM (inactive)
COc1ccc(Nc2nc(N)c(C(=O)c3ccc(Cl)cc3)s2)cc1	< 0.01 µM (active)	< 0.01 µM (active)	0.307 µM (active)	< 0.01 µM (active)	1.02 µM (active)	3.61 µM (inactive)	< 0.01 µM (active)	< 0.01 µM (active)	18.2 µM (inactive)	< 0.01 µM (active)	< 0.01 µM (active)	0.0123 µM (active)	< 0.0126 µM (active)	< 0.01 µM (active)	< 0.01 µM (active)	< 0.01 µM (active)	< 0.01 µM (active)	< 0.01 µM (active)	0.297 µM (active)
